According to PMC7321210, “Synthesis and Studies of the Inhibitory Effect of Hydroxylated Phenylpropanoids and Biphenols Derivatives on Tyrosinase and Laccase Enzymes” (Molecules, 2020):
Entries after “also recorded” stand apart in the source; their conditions may differ.

Key:
[1] = molecular target: tyrosinase (Agaricus bisporus, UniProt C7FF04); experiment: Tyrosinase amperometric biosensor: IC50 and type of inhibition; assay type: biochemical; conditions: for Type of Inhibition Tyrosinase: Lineweaver-Burk plot, biosensor exposed 30 min to twice the lowest inhibiting concentration; for VMAX, substrate + inhibitor, TYR: dopamine calibration 0-140 mM after inhibitor exposure, n=4 biosensors;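 as to all read-outs here: Carbon-composite amperometric tyrosinase biosensors with polyurethane-entrapped enzyme, calibrated in a three-electrode cell against Ag/AgCl at room temperature, before versus after inhibitor exposure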
Experimental: (§1) Inhibition types and IC50 were assessed by means of carbon-based amperometric biosensors [61, 62, 63, 64, 65], that are described in the Supplementary Materials. During the experiments carried out to determine the IC50 values, the lowest inhibitory concentration of each compound was also evaluated.
(§2) To verify the inhibition types, the following protocol was used. An initial calibration with dopamine, ranging between 0 and 140 mM, was performed in order to ascertain the values of VMAX and KM. Another calibration with the same protocol was performed after having exposed the biosensors to twice the lowest inhibiting concentration of each inhibitor, in order to ensure the safe inhibition of enzymatic activity. The biosensors were exposed to the inhibitor for 30 min and after having reached a stabile baseline, a calibration with dopamine, ranging between 0 and 140 mM, was performed and the value of VMAX and KM were calculated. The variations of both VMAX and KM were then analyzed by using the Lineweaver-Burk plot in order to identify the type of inhibition induced by the tested compound. The statistical difference in VMAX and KM, before exposing the biosensors to the inhibitor and then afterwards, was calculated by means of a paired t-test (p < 0.05).
(§3) The biosensors were prepared starting from a Teflon™-insulated silver wire (30 mm in length; Ø = 125 μm),
(§4) Briefly, 1 mm of the silver wire was exposed and then introduced into a silica
(§5) capillary cylinder (10 mm in length; I.D. Ø = 180 μm, Polymicro Technologies, Phoenix, AZ, USA) partly
(§6) packed with graphite-loaded (55% w/w) epoxy resin. By mixing 850 mg of graphite with 500 mg of Araldite-
(§7) M and 200 mg of hardener, a preliminary disc electrode of carbon-composite was fabricated (Ø = 180 μm; area:
(§8) 2.5 × 10−4 cm2) by filling the silica capillary tubing with the mixture. The silver wire assured a good electrical
(§9) contact. After 24 h at 40 °C, the electrode surface was cleaned using a high-speed drill (Dremel® 300) equipped
(§10) with an aluminum oxide grinding wheel. On top of the electrode surface a 1 µl of Tyrosinase or Laccase
(§11) solution was deposited. After the complete evaporation of water at room temperature, the biosensor was
(§12) quickly dipped in the polyurethane solution in order to entrap the enzyme on the electrode surface, and after
(§13) the complete evaporation of the solvent biosensors were put to stabilize in PBS pH=6.0 overnight.
(§14) The electrochemical measurements were performed at room temperature in a classical three-electrode
(§15) electrochemical cell consisting of four biosensors as working electrodes, a reference electrode (Ag/AgCl in
(§16) Constant potential amperometry (CPA) was used for in-vitro calibrations and for inhibition evaluation
(§17) experiments by applying a constant potential of -50 mV against an Ag/AgCl reference electrode, by means of
(§18) a four-channel potentiostat (eDAQ Quadstat, e- Corder 410, eDAQ Europe, Poland) and the software Chart (v
(§19) 5.5, eDAQ Europe, Poland). Thus, once the stabilization of the baseline of biosensors was reached, increasing
(§20) volumes of a stock solution of dopamine 1 M were added in order to obtain different concentrations ranging

[2] = tested on: PC12 cells; experiment: Viability of PC12 cells (MTT assay); assay type: cell-based, rat; conditions: cell viability < 80%; screening from 1 to 40 μM, 24 h
Experimental: Initially, the inhibitor concentrations on PC12 cells, i.e., a rat pheochromocytoma-derived cell line, were screened to assess the possible cytotoxicity of the molecules under study [55].
(§21) 1.4 Viability and oxidative stress assays
(§22) PC12 cells, rat pheochromocytoma-derived cell line (ATCCCRL-1721) (passages 12–25) were maintained at 37
(§23) °C humidified air containing 5% CO2/95% atmospheric air and cultured in a 60 mm plastic culture plates with
(§24) Dulbecco’s modified Eagle’s medium supplemented with 10% horse serum, 5% fetal bovine serum and 1% of
(§25) penicillin/streptomycin. PC12 cells were treated for 24 h with the different compounds at different
concentrations ranging from 1 to 40 μM, to evaluate their eventual toxicity.
(§26) For all treatments cell viability was measured by means of MTT assay, as explained in
the following paragraph [17].
(§27) At the end of the exposure time of each experiment, the cell viability was assessed by means of MTT (3-(4,5-
(§28) dimethyl-thiazol-2-yl)-2,5-diphenyltetrazoliumbromide) assay. For this purpose, 1 mg/mL of MTT was added
(§29) to each sample and incubated for 4 h at 37 °C. Only viable cells are able to convert the soluble dye MTT into
(§30) the insoluble formazan crystals. After the incubation the MTT supernatant solution was removed, the cells
(§31) were washed in phosphate-buffered saline (PBS) and centrifuged while the pellet was dissolved in 2 mL of
(§32) isopropanol. After centrifugation of the solution at 4,000 rpm for 5 min, the absorbance for each sample was
(§33) assessed by means of a Bauty Diagnostic Microplate Reader at 578 nm. All experiments were performed in 24-
(§34) well plates (1 × 10^5 cells/mL/well) and repeated in triplicate.

[3] = tested on: PC12 cells; experiment: Protection of PC12 cells against H2O2-induced oxidative stress (MTT); assay type: cell-based, rat; conditions: for H2O2 Damage Protection: concentration with significant increase in viability vs H2O2, co-treatment with 100 μM H2O2, n.p.: no protection
Experimental: as §21, §22, §23, §24, §25
(§35) concentrations ranging from 1 to 40 μM, to evaluate their eventual toxicity. Then, in order to assess the
(§36) eventual compounds’ protection properties, PC12 cell treated with hydrogen peroxide (100μM) in association
with increasing concentration of the above-mentioned molecules, from 1 up to 20 μM.
as §26, §27, §28, §29, §30, §31, §32, §33, §34

[4] = tested on: Tenebrio molitor; experiment: Insecticidal properties on mealworm larvae; assay type: in vivo; conditions: Tenebrio molitor, topical, 120 h, larvae immersed three seconds in 2.5 mL acetone solution 6.4 mg/mL, reared five days; DFB as Dimilin WP 25% a.i., 25.6 mg/mL; read-out: Mortality% (Mean ± SD)
Experimental: Late instar larvae of Tenebrio molitor from a twenty-year-old insect culture at the Research Institute on Terrestrial Ecosystems (National Research Council, Sassari, Italy) were used in the experiments. The species was reared on bran flour, with the integration of fresh vegetables, at 25 °C, 65% relative humidity and 16:8 hours light/darkness.
One hundred medium instar larvae were isolated in a petri dishes (diam. 50 mm). They were then immersed for three seconds in 2.5 mL of an acetone solution (concentration 6.4 mg/mL w:v) of one of the fourteen compounds listed in Table 3. In addition, a treatment with the commercial formulation Dimilin (WP, 25% a.i. diflubenzuron) (acetone solution, 25.6 mg/mL w:v) and a negative control (no treatment) were tested.
After treatment, the larvae were subdivided into five 20-specimen groups and reared for five days in a small PVC box (150 L × 120 W × 50 H mm) with the same feed and conditions as standard rearing. Mortality was recorded daily.
The statistical analysis was conducted with the R software (R Development Core Team 2016). Mortality data, expressed as a percentage, were arcsin(√x)-transformed to satisfy assumptions of normality. ANOVA was performed by the Duncan test for mean separation.

[5] = tested on: PC12 cells; experiment: Protection of PC12 cells against MnCl2 damage (MTT); assay type: cell-based, rat; conditions: concentration with significant increase in viability vs MnCl2; co-treatment with 1 mM MnCl2; n.p.: no protection
Experimental: as §22, §23, §24, §25, §35, §36
with increasing concentration of the above-mentioned molecules, from 1 up to 20 μM. For the compounds that
against MnCl2 insult. For all treatments cell viability was measured by means of MTT assay, as explained in
as §27
For this purpose, 1 mg/mL of MTT was added
as §29
the insoluble formazan crystals. After the incubation the MTT supernatant solution was removed, the cells […]
as §32
assessed by means of a Bauty Diagnostic Microplate Reader at 578 nm. […]

[6] = tested on: laccase; experiment: Laccase amperometric biosensor: IC50 and type of inhibition; assay type: biochemical; conditions: for Type of Inhibition Laccase: Lineweaver-Burk plot, biosensor exposed 30 min to twice the lowest inhibiting concentration; for VMAX, substrate + inhibitor, LAC: dopamine calibration 0-140 mM after inhibitor exposure, n=4 biosensors; for IC50: enzyme immobilized on biosensor, dopamine 50 µM, PBS pH 6.0
Experimental: as §1, §2, §3, §4, §5, §6, §7, §8, §9, §10, §11, §12, §13, §14, §15, §16, §17, §18, §19, §20

[7] = tested on: mushroom tyrosinase; experiment: Spectrophotometric (UV-Vis) detection of tyrosinase inhibitory activity; assay type: biochemical; conditions: for tyrosinase inhibition in words, tyrosine versus dopamine as substrate: UV-Vis, absorbance at 311 or 472 nm, Figure 3
Experimental: Kinetic assays were carried out by measuring the appearance of the product of either tyrosine or dopamine oxidation in the reaction medium at 311 and 472 nm, respectively, in a Shimadzu UV-2501 spectrophotometer (Shimadzu, Kyoto, Japan) equipped with the UV-Probe software, using a tandem quartz cuvette (Hellma, Milan, Italy) with a 2 × 4.375-mm path length [1, 2, 51]. Briefly, one side of the dual chamber cuvette was filled with 1000 µl of mushroom tyrosinase solution in 50 mM phosphate buffer, pH 6.8, 166 Units/mL using tyrosine as substrate or a 16.6 Units/mL when dopamine was used as substrate. The other chamber was loaded with 980 µL of substrate solution (180 µM tyrosine or 18 µM dopamine) in 20 mM phosphate buffer (pH 6.8) added of either 20 µL of DMSO (control) or 20 µL of a 2 mM (0.2 mM in dopamine experiments) solution of tested inhibitors in DMSO. A background spectrum in the 250–700 nm range was acquired with a 2.0 nm slit and fast speed before starting the reaction. Thereafter, the solutions in the two chambers were mixed by inversion and the UV-Vis spectra were acquired at increasing time intervals. Spectra were recorded at 311 or 472 nm in the presence of the inhibitor before mixing, and after either 24 or 10 min, using tyrosine or dopamine as a substrate, respectively. Data processing was performed with UV Probe and OriginPro 2019 (v. 9.60) softwares.
The mushroom tyrosinase was used as purchased without further purification. All solutions (tyrosinase, substrates and inhibitors) were filtered through a 0.45-μm syringe filter, aliquoted in Eppendorf tubes, and stored in freezer. The relative concentration was determined spectrophotometrically (εtyrosine 274.6 nm = 1420 M^−1·cm^−1; εdopamine at 280 nm = 2670 M^−1·cm^−1; εtyrosinase at 280 nm = 1426 M^−1·cm^−1).
Tyrosine was dissolved in 50 mM phosphate buffer, pH 6.8, final concentration 80 µM and with the added inhibitor (final concentration 20 µM) and tyrosinase (83 U/mL). The absorbance values were determined after 24 min of incubation. In the presence of dopamine, experiments were performed using 10-fold diluted solutions, and the absorbance values were determined after 10 min of incubation.

Chain of tyrosinase (C7FF04 2-392): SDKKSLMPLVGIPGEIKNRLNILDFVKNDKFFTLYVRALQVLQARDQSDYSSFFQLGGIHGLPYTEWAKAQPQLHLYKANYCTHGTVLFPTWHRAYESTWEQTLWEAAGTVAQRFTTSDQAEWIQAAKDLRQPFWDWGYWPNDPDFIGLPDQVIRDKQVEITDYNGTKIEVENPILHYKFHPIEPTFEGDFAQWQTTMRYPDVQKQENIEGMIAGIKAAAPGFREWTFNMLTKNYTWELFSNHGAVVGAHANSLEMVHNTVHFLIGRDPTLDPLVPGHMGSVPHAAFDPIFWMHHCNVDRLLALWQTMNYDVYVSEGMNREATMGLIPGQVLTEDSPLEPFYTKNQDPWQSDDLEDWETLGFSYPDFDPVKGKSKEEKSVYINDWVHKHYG

SMILES	Type of Inhibition Tyrosinase [1]	VMAX, substrate + inhibitor, TYR [1]	Toxic Concentration [2]	H2O2 Damage Protection [3]	pest or weed control at 6400 µg/mL [4]	MnCl2 Damage Protection [5]	Type of Inhibition Laccase [6]	VMAX, substrate + inhibitor, LAC [6]	tyrosinase inhibition in words, tyrosine versus dopamine as substrate [7]	IC50 [6]	% inhibition of tyrosinase ([7]; comparable with both substrates, tyrosine 80 µM, inhibitor 20 µM, 24 min, dopamine 10-fold diluted solutions, 10 min)	change of cell viability versus H2O2 alone, in words ([3]; co-treatment with 100 μM H2O2, compounds 1 up to 20 μM)	melting point
CC(=O)C=Cc1ccc(O)cc1O [Compound 7, reference compound]	competitively; also recorded: competitive	114.1±12.5 nA	>10 µM	1 µM	5 ± 7.07%	n.p.	competitively; also recorded: competitive	188.4±9.0 nA	most active tyrosinase inhibitor in the presence of both substrates	–	–	–	–
COc1cc(/C=C/C(=O)c2ccccc2)ccc1O [Compound 10]	uncompetitive or mixed; also recorded: mixed	31.5±2.9 nA	>20 µM	20 µM	–	n.p.	competitive	89.2±7.7 nA	–	212 nM	10%	–	–
OC[C@H]1O[C@@H](Oc2ccc(-c3ccc(O)c(Br)c3)cc2Br)[C@H](O)[C@@H](O)[C@@H]1O [Compound 19, (2S,3R,4S,5S,6R)-2-((3,3’-dibromo-4’-hydroxy-[1,1’-biphenyl]-4-yl)oxy)-6-(hydroxymethyl)tetrahydro-2H-pyran-3,4,5-triol]	noncompetitive	123.5±9.8 nA	none	n.p.	–	–	competitive	111.4±8.9 nA	predominant inhibition of tyrosine oxidation	130 nM	–	significant decrease (p < 0.05 vs H2O2) in cells viability at all concentrations tested	176 to 178 °C
